In patent US20260297042A1, “BIARYLAMIDE DERIVATIVES AND THEIR USE AS PKMYT1 INHIBITORS” (CANCER RESEARCH TECHNOLOGY LIMITED, priority 2023, published 2026):

Legend:
WEE1 = target: T1, WEE1 (Homo sapiens, UniProt P30291); test: Selectivity versus WEE1 assay (ADP-Glo enzymatic assay); assay type: biochemical; conditions: for IC50: ADP-Glo; for PKMYT1 vs. WEE1 selectivity: fold difference in selectivity for PKMYT1 over WEE1
T1 construct: purchased Thermo Fisher PR7373A
Outline: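 Kinase at 15 nM final in 50 mM HEPES pH 7.5, 10 mM MgCl2, 1 mM EGTA, 0.01% Brij-35, 1% DMSO was started with 30 µM ATP and run 60 min at 26° C. ADP formed was read by ADP-Glo luminescence; IC50 came from dose-response curves.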

Human PKMYT1 = target: T2, Human PKMYT1 (Homo sapiens, UniProt Q99640); test: PKMYT1 biochemical ADP-Glo enzymatic assay; conditions: ADP-Glo
T2 construct: Human PKMYT1 75-362 was cloned as a TEV cleavable 6xHis fusion; 6xHis (TEV cleavable) (cleaved yes); made in house; host or cells: bacterial cells
T2 sequence (Q99640 75-362): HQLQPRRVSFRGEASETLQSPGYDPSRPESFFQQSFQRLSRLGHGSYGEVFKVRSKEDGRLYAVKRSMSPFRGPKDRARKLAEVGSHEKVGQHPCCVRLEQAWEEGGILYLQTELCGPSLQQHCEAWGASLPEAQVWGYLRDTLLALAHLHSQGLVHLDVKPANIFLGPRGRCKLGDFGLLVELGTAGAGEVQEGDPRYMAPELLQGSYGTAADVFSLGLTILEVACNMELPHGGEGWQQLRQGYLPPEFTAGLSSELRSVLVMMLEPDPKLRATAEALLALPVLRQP
Outline: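 Intrinsic ATPase activity of E. coli-expressed, tag-cleaved human PKMYT1 kinase domain (75-362), 15 nM, with 500 µM ATP in HEPES pH 7.5/MgCl2/EGTA/Brij-35, 1% DMSO, 60 min at 26 °C. ADP formed was read by ADP-Glo Max luminescence; IC50 from 10-point, 3-fold dilution curves.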

[1] = 15 nM WEE1, 60 minutes at 26° C., banded
[2] = banded, ">N" = at least in this band but could be higher
[3] = 15 nM PKMYT1 kinase domain, 500 µM ATP, 60 minutes at 26° C., banded
[4] = PKMYT1 kinase domain 15 nM, banded values

T1 sequence (P30291 whole entry): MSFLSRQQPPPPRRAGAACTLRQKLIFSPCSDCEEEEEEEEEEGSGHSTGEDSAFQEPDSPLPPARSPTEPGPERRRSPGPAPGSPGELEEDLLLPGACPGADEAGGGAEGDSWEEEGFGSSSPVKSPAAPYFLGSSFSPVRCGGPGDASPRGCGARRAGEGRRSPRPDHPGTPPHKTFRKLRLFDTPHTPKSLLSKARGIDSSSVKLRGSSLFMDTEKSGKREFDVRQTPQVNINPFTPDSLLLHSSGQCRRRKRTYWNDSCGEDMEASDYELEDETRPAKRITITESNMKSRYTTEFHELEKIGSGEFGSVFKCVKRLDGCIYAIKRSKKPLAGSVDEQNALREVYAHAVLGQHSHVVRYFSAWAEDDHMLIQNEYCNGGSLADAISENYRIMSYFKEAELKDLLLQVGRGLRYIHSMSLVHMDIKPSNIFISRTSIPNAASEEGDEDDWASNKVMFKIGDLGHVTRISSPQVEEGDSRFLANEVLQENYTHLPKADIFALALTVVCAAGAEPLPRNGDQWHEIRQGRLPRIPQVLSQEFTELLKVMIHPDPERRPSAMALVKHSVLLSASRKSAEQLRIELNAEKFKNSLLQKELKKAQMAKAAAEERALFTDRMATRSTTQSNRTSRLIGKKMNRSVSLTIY

`CCCn1ccc(Nc2ncc(C(=O)Nc3c(C)ccc(O)c3C)s2)n1` [BAA-006, N-(3-hydroxy-2,6-dimethyl-phenyl)-2-[(1-propylpyrazol-3-yl)amino]thiazole-5-carboxamide] was tested, and the IC50 (WEE1; [1]) was > 11 µM, the “PKMYT1 vs. WEE1 selectivity” value (WEE1; [2]) was “X (100-<1000 fold)” and the IC50 (Human PKMYT1; [3]) was 0.05 to 1 µM.

For `Cc1nc(Cl)cc(Nc2ncc(C(=O)Nc3c(C)ccc(O)c3C)s2)n1` [BAA-436, 2-((6-chloro-2-methylpyrimidin-4-yl)amino)-N-(3-hydroxy-2,6-dimethylphenyl)thiazole-5-carboxamide], the IC50 (WEE1; WEE1 15 nM, banded values) was > 11 µM, the “PKMYT1 vs. WEE1 selectivity” value (WEE1; banded) was “Z (>5000 fold)” and the IC50 (Human PKMYT1; [4]) was < 0.05 µM.

`Cc1ccc(O)c(C)c1NC(=O)c1cnc(Nc2ccn(CC(=O)NC(C)C)n2)s1` [BAA-189, N-(3-hydroxy-2,6-dimethyl-phenyl)-2-[[1-[2-(isopropylamino)-2-oxo-ethyl]pyrazol-3-yl]amino]thiazole-5-carboxamide] was tested, and the IC50 (WEE1; [1]) was > 11 µM, the “PKMYT1 vs. WEE1 selectivity” value (WEE1; [2]) was “Y (1000-5000 fold)” and the IC50 (Human PKMYT1; [3]) was 0.05 to 1 µM.

With `Cc1ccc(O)c(C)c1NC(=O)c1cnc(Nc2nccc(-c3ccc(Cl)cc3)n2)s1` [BAA-293, 2-((4-(4-chlorophenyl)pyrimidin-2-yl)amino)-N-(3-hydroxy-2,6-dimethylphenyl)thiazole-5-carboxamide] the IC50 (WEE1; [1]) was > 11 µM, the “PKMYT1 vs. WEE1 selectivity” value (WEE1; [2]) was “Y (1000-5000 fold)” and the IC50 (Human PKMYT1; [3]) was < 0.05 µM.

For `Cc1ccc(O)c(C)c1NC(=O)c1cnc(Nc2nn(-c3ccc(C(F)(F)F)nc3)cc2Cl)s1` [BAA-382, 2-((4-chloro-1-(6-(trifluoromethyl)pyridin-3-yl)-1H-pyrazol-3-yl)amino)-N-(3-hydroxy-2,6-dimethylphenyl) thiazole-5-carboxamide], the IC50 (WEE1; [1]) was > 11 µM, the “PKMYT1 vs. WEE1 selectivity” value (WEE1; [2]) was “X (100-<1000 fold)” and the IC50 (Human PKMYT1; [3]) was 0.05 to 1 µM.

For `Cc1ccc(O)c(C)c1NC(=O)c1cnc(Nc2ccn(CC(=O)N3CCC3)n2)s1` [BAA-175, 2-[[1-[2-(azetidin-1-yl)-2-oxo-ethyl]pyrazol-3-yl]amino]-N-(3-hydroxy-2,6-dimethyl-phenyl)thiazole-5-carboxamide], the IC50 (WEE1; [1]) was > 11 µM, the “PKMYT1 vs. WEE1 selectivity” value (WEE1; [2]) was “Y (1000-5000 fold)” and the IC50 (Human PKMYT1; [3]) was < 0.05 µM.

In the case of `Cc1ccc(O)c(C)c1NC(=O)c1cnc(Nc2nc(C(F)(F)F)cs2)s1` [BAA-017], the IC50 (WEE1; [1]) is reported as > 11 µM, the “PKMYT1 vs. WEE1 selectivity” value (WEE1; [2]) is reported as “>X (100-<1000 fold)” and the IC50 (Human PKMYT1; [3]) is reported as 0.05 to 1 µM.

`Cc1ccc(O)c(C)c1NC(=O)c1cnc(Nc2ccn([C@@H]3CCN(C(=O)COc4ccccc4)C3)n2)s1` [BAA-088] was tested, and the IC50 (WEE1; [1]) was > 11 µM, the “PKMYT1 vs. WEE1 selectivity” value (WEE1; [2]) was “>X (100-<1000 fold)” and the IC50 (Human PKMYT1; [3]) was 0.05 to 1 µM.

With `Cc1ccc(O)c(C)c1NC(=O)c1cnc(Nc2ccn(CC(=O)N3CCCCC3)n2)s1` [BAA-149, N-(3-hydroxy-2,6-dimethyl-phenyl)-2-[[1-[2-oxo-2-(1-piperidyl)ethyl]pyrazol-3-yl]amino]thiazole-5-carboxamide] the IC50 (WEE1; [1]) was > 11 µM, the “PKMYT1 vs. WEE1 selectivity” value (WEE1; [2]) was “Y (1000-5000 fold)” and the IC50 (Human PKMYT1; [3]) was < 0.05 µM.

For `O=C(Nc1c(F)ccc(O)c1Cl)c1cnc(Nc2ccn(CC(=O)N3CCCC3)n2)s1` [BAA-482, N-(2-chloro-6-fluoro-3-hydroxyphenyl)-2-((1-(2-oxo-2-(pyrrolidin-1-yl)ethyl)-1H-pyrazol-3-yl)amino) thiazole-5-carboxamide], the IC50 (WEE1; WEE1 15 nM, banded values) was > 11 µM, the “PKMYT1 vs. WEE1 selectivity” value (WEE1; banded) was “Y (1000-5000 fold)” and the IC50 (Human PKMYT1; [4]) was < 0.05 µM.

For `Cc1ccc(O)c(C)c1NC(=O)c1cnc(NCCCN2CCN(C)CC2)s1` [BAA-218, N-(3-Hydroxy-2,6-dimethyl-phenyl)-2-[3-(4-methylpiperazin-1-yl)propylamino]thiazole-5-carboxamide], the IC50 (WEE1; [1]) was > 11 µM, the “PKMYT1 vs. WEE1 selectivity” value (WEE1; [2]) was “W (10-<100 fold)” and the IC50 (Human PKMYT1; [3]) was 1 to 11 µM.

With `COCC(=O)N1CC[C@@H](n2ccc(Nc3ncc(C(=O)Nc4c(C)ccc(O)c4C)s3)n2)C1` [BAA-092] the IC50 (WEE1; [1]) was > 11 µM, the “PKMYT1 vs. WEE1 selectivity” value (WEE1; [2]) was “>X (100-<1000 fold)” and the IC50 (Human PKMYT1; [3]) was 0.05 to 1 µM.
